Data: patent US12162890B2 (Novartis AG, priority 2015, dated 2024)

The compounds below were run against HEK293 cells with stable expression of the GRIN1 gene and tetracycline-inducible expression of the GRIN2B gene (NMDA receptor, NR2B) (Homo sapiens, UniProt Q13224) (assay: Fluo-8 Ca2+ flux assay: reversal of Ro 25-6981-mediated suppression of the Ca2+ response to co-agonist (glutamate/glycine)). Settings: reversal of the Ro 25-6981 suppression of the Ca2+ response to co-agonist (glutamate/glycine).
HEK293 cells with stable expression of the GRIN1 gene and tetracycline-inducible expression of the GRIN2B gene (NMDA receptor, NR2B), sequence (Q13224 27-1484, other chains not shown): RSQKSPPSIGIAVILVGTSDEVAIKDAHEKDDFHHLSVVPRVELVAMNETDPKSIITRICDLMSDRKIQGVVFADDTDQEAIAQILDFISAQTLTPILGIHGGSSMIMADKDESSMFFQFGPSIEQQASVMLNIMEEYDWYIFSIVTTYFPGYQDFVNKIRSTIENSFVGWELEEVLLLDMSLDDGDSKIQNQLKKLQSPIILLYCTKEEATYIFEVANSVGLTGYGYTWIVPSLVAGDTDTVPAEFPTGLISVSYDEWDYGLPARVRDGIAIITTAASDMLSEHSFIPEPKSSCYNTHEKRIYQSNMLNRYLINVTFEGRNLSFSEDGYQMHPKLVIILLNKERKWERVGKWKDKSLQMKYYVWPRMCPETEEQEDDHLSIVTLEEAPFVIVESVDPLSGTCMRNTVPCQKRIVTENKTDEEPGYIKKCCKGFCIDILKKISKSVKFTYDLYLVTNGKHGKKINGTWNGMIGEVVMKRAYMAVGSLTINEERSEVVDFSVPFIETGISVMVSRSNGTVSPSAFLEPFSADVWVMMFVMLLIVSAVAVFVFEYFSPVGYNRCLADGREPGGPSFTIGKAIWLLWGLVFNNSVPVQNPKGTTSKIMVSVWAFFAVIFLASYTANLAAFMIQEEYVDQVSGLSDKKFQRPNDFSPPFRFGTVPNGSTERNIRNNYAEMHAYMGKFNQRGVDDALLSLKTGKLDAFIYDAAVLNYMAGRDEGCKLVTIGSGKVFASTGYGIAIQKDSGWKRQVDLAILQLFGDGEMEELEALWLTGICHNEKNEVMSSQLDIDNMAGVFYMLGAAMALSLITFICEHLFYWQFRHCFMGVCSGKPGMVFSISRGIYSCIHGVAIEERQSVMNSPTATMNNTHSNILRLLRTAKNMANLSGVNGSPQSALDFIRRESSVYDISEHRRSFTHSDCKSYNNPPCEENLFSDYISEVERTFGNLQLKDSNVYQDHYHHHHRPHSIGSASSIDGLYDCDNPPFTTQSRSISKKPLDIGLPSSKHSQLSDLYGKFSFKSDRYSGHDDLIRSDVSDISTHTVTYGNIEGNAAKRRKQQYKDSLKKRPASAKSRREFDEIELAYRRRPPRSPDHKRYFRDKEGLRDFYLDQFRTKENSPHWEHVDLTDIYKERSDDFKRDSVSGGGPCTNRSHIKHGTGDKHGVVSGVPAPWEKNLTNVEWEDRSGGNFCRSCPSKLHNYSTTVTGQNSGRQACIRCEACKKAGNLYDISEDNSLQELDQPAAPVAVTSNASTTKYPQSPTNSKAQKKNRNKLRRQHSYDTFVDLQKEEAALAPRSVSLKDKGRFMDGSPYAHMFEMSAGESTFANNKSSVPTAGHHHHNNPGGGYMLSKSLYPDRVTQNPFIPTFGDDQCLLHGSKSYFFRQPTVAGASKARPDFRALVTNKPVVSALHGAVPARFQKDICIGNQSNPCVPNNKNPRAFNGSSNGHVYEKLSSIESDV
Format: cell-based
Note: test concentration or dose not given here.

| Structure (SMILES) | Response Recovered (%) |
| --- | --- |
| Cc1nc(-c2ccc(F)c(Cl)c2)c2c(=O)n(CC(=O)N3CC(F)(F)C3)ccn12 [Example 430, 1-(3-chloro-4-fluorophenyl)-7-(2-(3,3-dilfuoroazetidin-1-yl)-2-oxoethyl)-3-methylimidazo[1,5-a]pyrazin-8(7H)-one] | 7.3% |
| CCC1(F)CN(C(=O)Cn2ccn3c(C)nc(-c4ccc(F)c(Cl)c4)c3c2=O)C1 [Example 431, 1-(3-chloro-4-fluorophenyl)-7-(2-(3-ethyl-3-fluoroazetidin-1-yl)-2-oxoethyl)-3-methylimidazo[1,5-a]pyrazin-8(7H)-one] | −3.9% |
| CC1(F)CN(C(=O)Cn2ccn3cnc(-c4ccc(F)c(Cl)c4)c3c2=O)C1 [Example 445, 1-(3-chloro-4-fluorophenyl)-7-(2-(3-fluoro-3-methylazetidin-1-yl)-2-oxoethyl)imidazo[1,5-a]pyrazin-8(7H)-one] | 34% |
| CC1(F)CN(C(=O)Cn2ccn3cnc(-c4ccc(F)c(C(F)(F)F)c4)c3c2=O)C1 [Example 446, 1-(4-fluoro-3-(trifluoromethyl)phenyl)-7-(2-(3-fluoro-3-methylazetidin-1-yl)-2-oxoethyl)imidazo[1,5-a]pyrazin-8(7H)-one] | 68% |
| CC1(F)CN(C(=O)Cn2ccn3cnc(-c4ccc(Cl)c(Cl)c4)c3c2=O)C1 [Example 447, 1-(3,4-dichlorophenyl)-7-(2-(3-fluoro-3-methylazetidin-1-yl)-2-oxoethyl)imidazo[1,5-a]pyrazin-8(7H)-one] | 58% |
| O=C(Cn1ccc2ncc(-c3ccc(F)c(C(F)(F)F)c3)n2c1=O)N1CCC(F)C1 (stereo not drawn) [Example 448, 3-(4-fluoro-3-(trifluoromethyl)phenyl)-6-(2-(3-fluoropyrrolidin-1-yl)-2-oxoethyl)imidazo[1,2-c]pyrimidin-5(6H)-one] | 14% |
| O=C(Cn1ccc2ncc(-c3cnc(Cl)c(C(F)(F)F)c3)n2c1=O)N1CCC(F)C1 (stereo not drawn) [Example 449, 3-(6-chloro-5-(trifluoromethyl)pyridin-3-yl)-6-(2-(3-fluoropyrrolidin-1-yl)-2-oxoethyl)imidazo[1,2-c]pyrimidin-5(6H)-one] | 5.2% |
| O=C(Cn1ccc2ncc(-c3ccc(Cl)c(Cl)c3)n2c1=O)N1CCC(F)C1 (stereo not drawn) [Example 450, 3-(3,4-dichlorophenyl)-6-(2-(3-fluoropyrrolidin-1-yl)-2-oxoethyl)imidazo[1,2-c]pyrimidin-5(6H)-one] | 33% |
| O=C(Cn1ccc2ncc(-c3ccc(F)c(Cl)c3)n2c1=O)N1CCC(F)C1 (stereo not drawn) [Example 451, 3-(3-chloro-4-fluorophenyl)-6-(2-(3-fluoropyrrolidin-1-yl)-2-oxoethyl)imidazo[1,2-c]pyrimidin-5(6H)-one] | 23% |
| Cc1cn(CC(=O)N2CCC(F)C2)c(=O)n2c(-c3ccc(F)c(Cl)c3)cnc12 (stereo not drawn) [Example 452, 3-(3-chloro-4-fluorophenyl)-6-(2-(3-fluoropyrrolidin-1-yl)-2-oxoethyl)-8 methylimidazo[1,2-c]pyrimidin-5(6H)-one] | 7.5% |
| Cc1cn(CC(=O)N2CCC(F)C2)c(=O)n2c(-c3ccc(Cl)c(Cl)c3)cnc12 (stereo not drawn) [Example 453, 3-(3,4-dichlorophenyl)-6-(2-(3-fluoropyrrolidin-1-yl)-2-oxoethyl)-8-methylimidazo[1,2-c]pyrimidin-5(6H)-one] | 26% |
| Cc1cn(CC(=O)N2CCC(F)C2)c(=O)n2c(-c3ccc(F)c(C(F)(F)F)c3)cnc12 (stereo not drawn) [Example 454, 3-(4-fluoro-3-(trifluoromethyl)phenyl)-6-(2-(3-fluoropyrrolidin-1-yl)-2-oxoethyl)-8-methylimidazo[1,2-c]pyrimidin-5(6H)-one] | 35% |

The next lines start with the values.

| Response Recovered (%) | Structure (SMILES) |
| --- | --- |
| 19% | O=C(Cn1ccn2c(C3CC3)nc(-c3ccc(F)c(Cl)c3)c2c1=O)N1CCC(F)C1 (stereo not drawn) [Example 432, 1-(3-chloro-4-fluorophenyl)-3-cyclopropyl-7-(2-(3-fluoropyrrolidin-1-yl)-2-oxoethyl)imidazo[1,5-a]pyrazin-8(7H)-one] |
| 68% | O=C(Cn1ccn2c(C3CC3)nc(-c3ccc(Cl)c(Cl)c3)c2c1=O)N1CCC(F)C1 (stereo not drawn) [Example 433, 3-cyclopropyl-1-(3,4-dichlorophenyl)-7-(2-(3-fluoropyrrolidin-1-yl)-2-oxoethyl)imidazo[1,5-a]pyrazin-8(7H)-one] |
| 40% | O=C(Cn1ccn2c(C3CC3)nc(-c3ccc(F)c(C(F)(F)F)c3)c2c1=O)N1CCC(F)C1 (stereo not drawn) [Example 434, 3-cyclopropyl-1-(4-fluoro-3-(trifluoromethyl)phenyl)-7-(2-(3-fluoropyrrolidin-1-yl)-2-oxoethyl)imidazo[1,5-a]pyrazin-8(7H)-one] |
| 120% | CC1(F)CN(C(=O)Cn2ccn3c(C4CC4)nc(-c4ccc(Cl)c(Cl)c4)c3c2=O)C1 [Example 435, 3-cyclopropyl-1-(3,4-dichlorophenyl)-7-(2-(3-fluoro-3-methylazetidin-1-yl)-2-oxoethyl)imidazo[1,5-a]pyrazin-8(7H)-one] |
| 100% | CC1(F)CN(C(=O)Cn2ccn3c(C4CC4)nc(-c4ccc(F)c(Cl)c4)c3c2=O)C1 [Example 436, 1-(3-chloro-4-fluorophenyl)-3-cyclopropyl-7-(2-(3-fluoro-3-methylazetidin-1-yl)-2-oxoethyl)imidazo[1,5-a]pyrazin-8(7H)-one] |
| 65% | CC1(F)CN(C(=O)Cn2ccn3c(C4CC4)nc(-c4cnc(Cl)c(Cl)c4)c3c2=O)C1 [Example 437, 3-cyclopropyl-1-(5,6-dichloropyridin-3-yl)-7-(2-(3-fluoro-3-methylazetidin-1-yl)-2-oxoethyl)imidazo[1,5-a]pyrazin-8(7H)-one] |
| 79% | CC1(F)CN(C(=O)Cn2ccn3c(C4CC4)nc(-c4ccc(F)c(C(F)(F)F)c4)c3c2=O)C1 [Example 438, 3-cyclopropyl-1-(4-fluoro-3-(trifluoromethyl)phenyl)-7-(2-(3-fluoro-3-methylazetidin-1-yl)-2-oxoethyl)imidazo[1,5-a]pyrazin-8(7H)-one] |
| 120% | O=C(Cn1ccn2c(C3CC3)nc(-c3ccc(F)c(Cl)c3)c2c1=O)N1CC(F)(CF)C1 [Example 439, 1-(3-chloro-4-fluorophenyl)-3-cyclopropyl-7-(2-(3-fluoro-3-(fluoromethyl)azetidin-1-yl)-2-oxoethyl)imidazo[1,5-a]pyrazin-8(7H)-one] |
| 110% | O=C(Cn1ccn2c(C3CC3)nc(-c3ccc(Cl)c(Cl)c3)c2c1=O)N1CC(F)(CF)C1 [Example 440, 3-cyclopropyl-1-(3,4-dichlorophenyl)-7-(2-(3-fluoro-3-(fluoromethyl)azetidin-1-yl)-2-oxoethyl)imidazo[1,5-a]pyrazin-8(7H)-one] |
| 46% | CC1(F)CN(C(=O)Cn2ccn3c(C4CC4)nc(-c4cnc(F)c(Cl)c4)c3c2=O)C1 [Example 441, 1-(5-chloro-6-fluoropyridin-3-yl)-3-cyclopropyl-7-(2-(3-fluoro-3-methylazetidin-1-yl)-2-oxoethyl)imidazo[1,5-a]pyrazin-8(7H)-one] |
| 65% | Cc1cc(-c2nc(C3CC3)n3ccn(CC(=O)N4CC(C)(F)C4)c(=O)c23)ccc1F [Example 442, 3-cyclopropyl-7-(2-(3-fluoro-3-methylazetidin-1-yl)-2-oxoethyl)-1-(4-fluoro-3-methylphenyl)imidazo[1,5-a]pyrazin-8(7H)-one] |
| 120% | Cc1cc(-c2nc(C3CC3)n3ccn(CC(=O)N4CC(C)(F)C4)c(=O)c23)ccc1Cl [Example 443, 1-(4-chloro-3-methylphenyl)-3-cyclopropyl-7-(2-(3-fluoro-3-methylazetidin-1-yl)-2-oxoethyl)imidazo[1,5-a]pyrazin-8(7H)-one] |
